# According to patent US11229655B2, “Fulvestrant formulations” (Fresenius Kabi USA, LLC, priority 2014, dated 2022):
# Where two headings read alike, the source gives them in different places.
# How the values were obtained:
# [1] = cited from earlier work
# [2] = U.S. Pat. No. 6,774,122, cited from earlier work
# [3] = Fulvestrant solubility in castor oil based liquid formulations, HPLC assay; type: physicochemical; settings: castor oil q.s., 10% w/v ethanol, 10% w/v benzyl alcohol
# Protocol: To determine the effect of other compounds on the solubility of fulvestrant in a castor oil vehicle containing 10% ethanol and 10% benzyl alcohol, several liquid formulations were prepared by mixing using standard techniques, as summarized in Table 1. Fulvestrant solubility in each formulation was determined by an HPLC assay.
smiles,measurement,setting,value
"C[C@]12CC[C@@H]3c4ccc(O)cc4C[C@@H](CCCCCCCCC[S+]([O-])CCCC(F)(F)C(F)(F)F)[C@H]3[C@@H]1CC[C@@H]2O (stereo partly drawn) [Fulvestrant, 7α-[9-(4,4,5,5,5-pentafluoropentylsulfinyl)nonyl]oestra-1,3,5(10)-triene 3,17 β-diol]",solubility in water,[1],practically insoluble in water
same,solubility of fulvestrant in a castor oil vehicle,"[2]; castor oil vehicle containing 10% ethanol, 10% benzyl alcohol, 15% benzyl benzoate",65 mg/mL
same,solubility of fulvestrant in castor oil,[2]; castor oil,20 mg/mL
same,solubility,"[3]; castor oil based liquid formulation, oil or lipid, 0.05% w/v polysorbate 80, read-out: Solubility",76.5 mg/mL
same,solubility,"[3]; castor oil based liquid formulation, oil or lipid, 0.1% w/v polysorbate 80, read-out: Solubility",82.5 mg/mL
same,solubility,"[3]; castor oil based liquid formulation, oil or lipid, 0.16% w/v polysorbate 80, read-out: Solubility",90 mg/mL
same,solubility,"[3]; castor oil based liquid formulation, oil or lipid, 0.2% w/v polysorbate 80, read-out: Solubility",95 mg/mL
same,solubility,"[3]; castor oil based liquid formulation, oil or lipid, 15% w/v ethyl oleate, read-out: Solubility",66.8 mg/mL
same,solubility,"[3]; castor oil based liquid formulation, oil or lipid, 15% w/v isopropyl myristate, read-out: Solubility",63.9 mg/mL
same,solubility,"[3]; castor oil based liquid formulation, oil or lipid, 15% w/v isopropyl palmitate, read-out: Solubility",67.6 mg/mL
same,solubility,[3]; 0.09% w/v polysorbate 80,82.1 mg/mL
